Measured values as given in patent publication US10619138B2, “Herbicide-resistant hydroxyphenylpyruvate dioxygenases” (BASF SE, priority 2013, dated 2020).
“And” between values parts separate entries of the source, which are not always exact repeats. Identical values can stand only once.

Columns and labels:
[1] = tested on: Microscilla HPPD (SEQ ID NO: 20); assay: In vitro HPPD activity assay, tolerance index; assay type: biochemical, Microscilla marina; details: normalized on Arabidopsis wild-type HPPD
Method: (§1) The activity assay for HPPD is based on the analysis of homogentisic acid by reversed phase HPLC.
(§2) The assay mixture can contain 150 mM potassium phosphate buffer pH 7.0, 50 mM L-ascorbic acid, 100 μM Catalase (Sigma-Aldrich), 1 μM FeSO4 and 0.2 units of purified HPPD enzyme in a total volume of 505 μl. 1 unit is defined as the amount of enzyme that is required to produce 1 nmol of HGA per minute at 20° C.
(§3) The reaction is allowed to proceed for 45 min at room temperature. The reaction is stopped by the addition of 50 μl of 4.5 M phosphoric acid. The sample is filtered using a […] pore size PVDF filtration device.
(§4) 5 μl of the cleared sample is analyzed on an UPLC HSS T3 column (particle size 1.8 μm, dimensions 2.1×50 mm; Waters) by isocratic elution using 90% 20 mM NaH2PO4 pH 2.2, 10% methanol (v/v).
(§5) HGA is detected electrochemically at 750 mV (mode: DC; polarity: positive) and quantified by integrating peak areas (Empower software; Waters).
(§6) Inhibitors are dissolved in DMSO (dimethylsulfoxide) to a concentration of 0.5 mM. From this stock solution serial five-fold dilutions are prepared in DMSO, which are used in the assay. The respective inhibitor solution accounts for 1% of the assay volume. Thus, final inhibitor concentrations range from 5 μM to 320 pM, respectively. Activities are normalized by setting the uninhibited enzyme activity to 100%. IC50 values are calculated using non-linear regression.
(§7) Using methods which are described in the above examples or well known in the art, purified, recombinant wildtype HPPD enzymes are characterized with respect to their kinetic properties and sensitivity towards HPPD inhibiting herbicides. Apparent michaelis constants (Km) and maximal reaction velocities (Vmax) are calculated by non-linear regression with the software GraphPad Prism 5 (GraphPad Software, La Jolla, USA) using a substrate inhibition model. […] Weighted means (by standard error) of Km and IC50 values are calculated from at least three independent experiments. The Cheng-Prusoff equation for competitive inhibition (Cheng, Y. C.; Prusoff, W. H. Biochem Pharmacol 1973, 22, 3099-3108) is used to calculate dissociation constants (Ki).
(§8) Field performance of the HPPD enzyme, which is used as a herbicide tolerance trait may depend not only on its lack of sensitivity towards HPPD inhibiting herbicides but also on its activity. To assess the potential performance of a herbicide tolerance trait a tolerance index (TI) is calculated using the following formula: […]
(§9) Easy comparison and ranking of each trait is enabled by normalizing tolerance indexes on Arabidopsis wild-type HPPD.

[2] = tested on: transgenic Arabidopsis plants expressing Scenedesmus HPPD; assay: Greenhouse herbicide spray test, transgenic plants (T2); assay type: in vivo, Arabidopsis thaliana; details: two weeks after treatment
Excerpt: (§10) Additionally, T1 and T2 transgenic Arabidopsis plants can be tested for improved tolerance to HPPD-inhibiting herbicides in greenhouse studies. Herbicide injury scoring is done 2-3 weeks after treatment and is rated on a scale of 0 to 100%, 0% being no injury and 100% being complete death.
(§11) Transgenic Arabidopsis plants were sprayed with a range of doses from 1.56-50 g/ha with HPPD-inhibiting herbicides and injury evaluations were taken two weeks after treatment. […] As depicted in Table 6, control plants are severely injured by all doses of herbicide applied, with at least 70% of leaf material being damaged at the lowest application rate. For example, transgenic plants expressing Scenedesmus HPPD have an excellent tolerance to all herbidcides tested. […] After application of Inhibitor 2, only 18% of leaf material was damaged resulting in a 5-fold tolerance compared to the WT at the highest application rate.

[3] = tested on: transgenic Arabidopsis plants expressing Algoriphagus HPPD; assay: as above; assay type: in vivo, Arabidopsis thaliana; details: two weeks after treatment
Excerpt: as §10, §11

[4] = tested on: transgenic Arabidopsis plants expressing Acidobacterium HPPD; assay: as above; assay type: in vivo, Arabidopsis thaliana; details: two weeks after treatment
Excerpt: as §10, §11

[5] = tested on: Pontibacter HPPD (SEQ ID NO: 16); assay: In vitro HPPD activity assay, tolerance index; assay type: biochemical, Pontibacter sp.; details: normalized on Arabidopsis wild-type HPPD
Method: as §1, §2, §3, §4, §5, §6, §7, §8, §9

[6] = tested on: Mucilaginibacter HPPD (SEQ ID NO: 28); assay: In vitro HPPD activity assay, tolerance index; assay type: biochemical, Mucilaginibacter paludis; details: normalized on Arabidopsis wild-type HPPD
Method: as §1, §2, §3, §4, §5, §6, §7, §8, §9

[7] = tested on: untransformed wild-type (WT) Arabidopsis plants; assay: Greenhouse herbicide spray test, wild-type plants; assay type: in vivo, Arabidopsis thaliana; details: two weeks after treatment, mean of three plants
Excerpt: as §10, §11

[8] = tested on: Algoriphagus HPPD (SEQ ID NO: 22); assay: In vitro HPPD activity assay, tolerance index; assay type: biochemical, Algoriphagus machipongonensis; details: normalized on Arabidopsis wild-type HPPD
Method: as §1, §2, §3, §4, §5, §6, §7, §8, §9

[9] = target: T1, Arabidopsis HPPD (SEQ ID NO: 42) (Arabidopsis thaliana, UniProt P93836); assay: In vitro HPPD activity assay (HGA by HPLC), wildtype enzyme characterization; assay type: biochemical; details: for TI (normalized tolerance index): normalized on Arabidopsis wild-type HPPD, reference enzyme
T1 construct: Arabidopsis (42); His tag; made in house; host or cells: E. coli BL21 (DE3)
T1 sequence (P93836 1-445): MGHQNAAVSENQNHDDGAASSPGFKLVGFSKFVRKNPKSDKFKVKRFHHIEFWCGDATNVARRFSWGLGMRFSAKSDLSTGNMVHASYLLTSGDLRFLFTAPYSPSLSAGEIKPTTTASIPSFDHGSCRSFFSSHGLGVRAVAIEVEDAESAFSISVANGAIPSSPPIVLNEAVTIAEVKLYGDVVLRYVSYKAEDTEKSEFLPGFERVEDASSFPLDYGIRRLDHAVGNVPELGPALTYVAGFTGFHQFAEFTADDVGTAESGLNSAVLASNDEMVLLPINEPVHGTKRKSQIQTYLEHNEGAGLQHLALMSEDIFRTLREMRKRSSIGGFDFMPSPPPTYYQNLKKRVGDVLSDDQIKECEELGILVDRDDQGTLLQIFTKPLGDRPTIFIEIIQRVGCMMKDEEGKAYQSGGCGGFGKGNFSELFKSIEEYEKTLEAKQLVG
Method: as §1, §2, §3, §4, §5
as §6, with “Thus, final inhibitor concentrations range from 5 μM to 320 pM, respectively.” left out
as §7, with “experiments.” for “experiments. The Cheng-Prusoff equation for competitive inhibition (Cheng, Y. C.; Prusoff, W. H. Biochem Pharmacol 1973, 22, 3099-3108) is used to calculate dissociation constants (Ki).”
as §8, §9

[10] = tested on: Acidobacterium HPPD (SEQ ID NO: 30); assay: In vitro HPPD activity assay, tolerance index; assay type: biochemical, Acidobacterium capsulatum; details: normalized on Arabidopsis wild-type HPPD
Method: as §1, §2, §3, §4, §5, §6, §7, §8, §9

[11] = tested on: Herpetosiphon HPPD (SEQ ID NO: 26); assay: In vitro HPPD activity assay, tolerance index; assay type: biochemical, Herpetosiphon aurantiacus; details: normalized on Arabidopsis wild-type HPPD
Method: as §1, §2, §3, §4, §5, §6, §7, §8, §9

[12] = tested on: Scenedesmus HPPD (SEQ ID NO: 4); assay: In vitro HPPD activity assay, tolerance index; assay type: biochemical, Scenedesmus obliquus; details: normalized on Arabidopsis wild-type HPPD
Method: as §1, §2, §3, §4, §5, §6, §7, §8, §9

[13] = tested on: Belliella HPPD (SEQ ID NO: 12); assay: In vitro HPPD activity assay, tolerance index; assay type: biochemical, Belliella baltica; details: normalized on Arabidopsis wild-type HPPD
Method: as §1, §2, §3, §4, §5, §6, §7, §8, §9

[14] = tested on: Geodermatophilus HPPD (SEQ ID NO: 32); assay: In vitro HPPD activity assay, tolerance index; assay type: biochemical, Geodermatophilus obscurus; details: normalized on Arabidopsis wild-type HPPD
Method: as §1, §2, §3, §4, §5, §6, §7, §8, §9

## Cc1c(C(=O)c2cnn(C)c2O)ccc(S(C)(=O)=O)c1C1=NOCC1 [Inhibitor 1, [3-(4,5-dihydroisoxazol-3-yl)-2-methyl-4-methylsulfonyl-phenyl]-(5-hydroxy-1-methyl-pyrazol-4-yl)methanone]
[1]
  TI (normalized tolerance index): 9.1
[2]; Scenedesmus HPPD Event 1, 1.56 g/ha
  Injury evaluation, scale 0-100%: 35%
[2]; Scenedesmus HPPD Event 1, 3.125 g/ha
  Injury evaluation, scale 0-100%: 58%
[2]; Scenedesmus HPPD Event 1, 6.25 g/ha
  Injury evaluation, scale 0-100%: 68%
[2]; Scenedesmus HPPD Event 2, 1.56 g/ha
  Injury evaluation, scale 0-100%: 45%
[2]; Scenedesmus HPPD Event 2, 3.125 g/ha
  Injury evaluation, scale 0-100%: 55%
[2]; Scenedesmus HPPD Event 2, 6.25 g/ha
  Injury evaluation, scale 0-100%: 65%
[3]; Algoriphagus HPPD Event 1, 1.56 g/ha
  Injury evaluation, scale 0-100%: 60%
[3]; Algoriphagus HPPD Event 1, 3.125 g/ha
  Injury evaluation, scale 0-100%: 70%
[3]; Algoriphagus HPPD Event 1, 6.25 g/ha
  Injury evaluation, scale 0-100%: 90%
[3]; Algoriphagus HPPD Event 2, 1.56 g/ha
  Injury evaluation, scale 0-100%: 48%
[3]; Algoriphagus HPPD Event 2, 3.125 g/ha
  Injury evaluation, scale 0-100%: 68%
[3]; Algoriphagus HPPD Event 2, 6.25 g/ha
  Injury evaluation, scale 0-100%: 78%
[4]; Acidobacterium HPPD Event 1, 1.56 g/ha
  Injury evaluation, scale 0-100%: 43%
[4]; Acidobacterium HPPD Event 1, 3.125 g/ha
  Injury evaluation, scale 0-100%: 78%
[4]; Acidobacterium HPPD Event 1, 6.25 g/ha
  Injury evaluation, scale 0-100%: 94%
[4]; Acidobacterium HPPD Event 2, 1.56 g/ha
  Injury evaluation, scale 0-100%: 48%
[4]; Acidobacterium HPPD Event 2, 3.125 g/ha
  Injury evaluation, scale 0-100%: 78%
[4]; Acidobacterium HPPD Event 2, 6.25 g/ha
  Injury evaluation, scale 0-100%: 97%
[5]
  TI (normalized tolerance index): 5.3
[6]
  TI (normalized tolerance index): 56.8
[7]; 1.56 g/ha
  Injury evaluation, scale 0-100%: 88%
[7]; 3.125 g/ha
  Injury evaluation, scale 0-100%: 90%
[7]; 6.25 g/ha
  Injury evaluation, scale 0-100%: 90%
[8]
  TI (normalized tolerance index): 23.7
[9]
  Ki: 950 pM
  TI (normalized tolerance index): 1
[9]; not normalized
  TI (tolerance index): 0.95E−3
[10]
  TI (normalized tolerance index): 22 and 21.9

## CC(=O)N(C)c1c(Cl)ccc(C2=C(O)c3ncccc3C(C)(C)S2(=O)=O)c1Cl [Inhibitor 6, N-[2,6-dichloro-3-(8-hydroxy-5,5-dimethyl-6,6-dioxo-thiopyrano[4,3-b]pyridin-7-yl)phenyl]-N-methyl-acetamide]
[1]
  TI (normalized tolerance index): 14.7
[11]
  TI (normalized tolerance index): 1.2
[5]
  TI (normalized tolerance index): 1.5
[12]
  TI (normalized tolerance index): 0.3
[6]
  TI (normalized tolerance index): 3.1
[13]
  TI (normalized tolerance index): 7.6
[8]
  TI (normalized tolerance index): 29.7
[9]
  TI (normalized tolerance index): 1
[14]
  TI (normalized tolerance index): 3.4

## CC1=NOC(c2c(Cl)ccc(C3=C(O)c4ncccc4C(C)(C)S3(=O)=O)c2Cl)C1 (centres unmarked) [Inhibitor 7, 7-[2,4-dichloro-3-(3-methyl-4,5-dihydroisoxazol-5-yl)phenyl]-5,5-dimethyl-6,6-dioxo-thiopyrano[4,3-b]pyridin-8-ol]
[1]
  TI (normalized tolerance index): 337.7
[5]
  TI (normalized tolerance index): 107.7
[6]
  TI (normalized tolerance index): 62.6
[8]
  TI (normalized tolerance index): 448 and 447.5
[9]
  TI (normalized tolerance index): 1
[10]
  TI (normalized tolerance index): 239 and 238.9

## CC1(C)c2cccnc2C(O)=C(c2ccc(Cl)nc2Cl)S1(=O)=O [Inhibitor 8, 7-(2,6-dichloro-3-pyridyl)-5,5-dimethyl-6,6-dioxo-thiopyrano[4,3-b]pyridin-8-ol]
[1]
  TI (normalized tolerance index): 65.9
[5]
  TI (normalized tolerance index): 13.7
[6]
  TI (normalized tolerance index): 26
[8]
  TI (normalized tolerance index): 73.7
[9]
  TI (normalized tolerance index): 1
[10]
  TI (normalized tolerance index): 35 and 34.6

## CC1(C)c2cccnc2C(O)=C(c2c(F)ccc(Cl)c2Br)S1(=O)=O [Inhibitor 9, 7-(2-bromo-3-chloro-6-fluoro-phenyl)-5,5-dimethyl-6,6-dioxo-thiopyrano[4,3-b]pyridin-8-ol]
[1]
  TI (normalized tolerance index): 22.8
[11]
  TI (normalized tolerance index): tolerant
[5]
  TI (normalized tolerance index): 3.9
[8]
  TI (normalized tolerance index): 42.8
[9]
  TI (normalized tolerance index): 1
[10]
  TI (normalized tolerance index): 20 and 20.2
[14]
  TI (normalized tolerance index): tolerant

## Cc1nonc1NC(=O)c1ccc(S(C)(=O)=O)c(S(C)(=O)=O)c1C [Inhibitor 10, 2-methyl-N-(4-methyl-1,2,5-oxadiazol-3-yl)-3,4-bis(methylsulfonyl)benzamide]
[1]
  TI (normalized tolerance index): 8.3
[5]
  TI (normalized tolerance index): 6
[6]
  TI (normalized tolerance index): 34.1
[8]
  TI (normalized tolerance index): 19
[9]
  TI (normalized tolerance index): 1
